The text below walks through data of ChEMBL document CHEMBL4024791, “Identification of Morpholino-2H-pyrido[3,2-b][1,4]oxazin-3(4H)-ones as Nonsteroidal Mineralocorticoid Antagonists” (J Med Chem, 2018).

SMILES strings stand for the structures. Active and inactive are the calls of the source. The calls are words filed in the database; no cut-off is given here.

The subject of the first data set is Rattus norvegicus. The experiment in a line: In vivo antagonist activity at MR in Wistar rat assessed as increase in urinary Na+ /K+ ratio at 100 mg/kg, po administered as single dose measured after 2 to 6 hrs post dose. In kind it is functional, organism-based.
Settings: not given
As to `COC(=O)[C@@H]1CC2=CC(=O)CC[C@]2(C)[C@@]23O[C@@H]2C[C@@]2(C)[C@@H](CC[C@@]24CCC(=O)O4)[C@H]13`, the inhibition entry was “Active”.

System in the next data set: not listed separately
The experiment in a line: Intrinsic clearance in rat liver microsomes.
Settings: not given
In general, microsomal CLint refers to the capacity of the preparation to metabolise the compound, expressed as a volume cleared per time. Read a low microsomal CLint as slow turnover. For `C[C@@H]1CN(c2ccc3c(c2)NC(=O)CO3)[C@H](c2ccccc2)CO1`, the microsomal CLint stood at 377 µL/min/mg.

As to `O=C1COc2ccc(N3C[C@@H](CO)OC[C@H]3c3ccccc3)nc2N1`, the microsomal CLint was 44 µL/min/mg.

For `C[C@@H]1CN(c2ncc3c(n2)NC(=O)CO3)[C@H](c2ccccc2)CO1`, the microsomal CLint was determined as 146 µL/min/mg.

System in another data set: not listed separately
The data set can be described thus: Intrinsic clearance in human liver microsomes.
Settings: not given
A general note: Liver microsomes are a subcellular fraction often used to study metabolism.
In turn, `O=C1COc2ccc(N3CCOC[C@H]3c3ccccc3)nc2N1` gave a microsomal CLint of 8.9 µL/min/mg.

For `COC[C@@H]1CN(c2ccc3c(n2)NC(=O)CO3)[C@H](c2ccccc2)CO1`, the microsomal CLint turned out to be 8 µL/min/mg.

Compound `C[C@@H]1CN(c2ccc3c(c2)NC(=O)CO3)[C@H](c2ccccc2)CO1` gave a microsomal CLint of 15.8 µL/min/mg.

As for `C[C@@H]1CN(c2ccc3c(n2)NC(=O)CO3)[C@H](c2ccccc2F)CO1`, the microsomal CLint is 14 µL/min/mg.

Consider `C[C@@H]1CN(c2cnc3c(c2)NC(=O)CO3)[C@H](c2ccccc2)CO1`, for which the microsomal CLint amounted to 13.9 µL/min/mg.

`C[C@@H]1CN(c2cc3c(cn2)OCC(=O)N3)[C@H](c2ccccc2)CO1` showed a microsomal CLint of 12.6 µL/min/mg.

For the compound `C[C@@H]1CN(c2ccc3c(n2)NC(=O)CO3)[C@H](c2ccc(F)cc2)CO1`, the microsomal CLint was determined as 8 µL/min/mg.

The compound `C[C@@H]1CN(c2ccc3c(n2)NC(=O)CO3)[C@H](c2cccc(F)c2)CO1` came in with a microsomal CLint of 9.6 µL/min/mg.

The compound `O=C1COc2ccc(N3C[C@@H](CO)OC[C@H]3c3ccccc3)nc2N1` registered a microsomal CLint of 14.8 µL/min/mg.

`N#CC[C@@H]1CN(c2ccc3c(n2)NC(=O)CO3)[C@H](c2ccccc2)CO1` returned a microsomal CLint of 11.9 µL/min/mg.

As for `CC1(C)CN(c2ccc3c(n2)NC(=O)CO3)[C@H](c2ccccc2)CO1`, the microsomal CLint is 15.2 µL/min/mg.

Consider `C[C@@H]1CN(c2ncc3c(n2)NC(=O)CO3)[C@H](c2ccccc2)CO1`, for which the microsomal CLint was determined as 8 µL/min/mg.

For a further data set, the target named is T1, Mineralocorticoid receptor (Homo sapiens, UniProt P08235).
T1 sequence (P08235 whole entry): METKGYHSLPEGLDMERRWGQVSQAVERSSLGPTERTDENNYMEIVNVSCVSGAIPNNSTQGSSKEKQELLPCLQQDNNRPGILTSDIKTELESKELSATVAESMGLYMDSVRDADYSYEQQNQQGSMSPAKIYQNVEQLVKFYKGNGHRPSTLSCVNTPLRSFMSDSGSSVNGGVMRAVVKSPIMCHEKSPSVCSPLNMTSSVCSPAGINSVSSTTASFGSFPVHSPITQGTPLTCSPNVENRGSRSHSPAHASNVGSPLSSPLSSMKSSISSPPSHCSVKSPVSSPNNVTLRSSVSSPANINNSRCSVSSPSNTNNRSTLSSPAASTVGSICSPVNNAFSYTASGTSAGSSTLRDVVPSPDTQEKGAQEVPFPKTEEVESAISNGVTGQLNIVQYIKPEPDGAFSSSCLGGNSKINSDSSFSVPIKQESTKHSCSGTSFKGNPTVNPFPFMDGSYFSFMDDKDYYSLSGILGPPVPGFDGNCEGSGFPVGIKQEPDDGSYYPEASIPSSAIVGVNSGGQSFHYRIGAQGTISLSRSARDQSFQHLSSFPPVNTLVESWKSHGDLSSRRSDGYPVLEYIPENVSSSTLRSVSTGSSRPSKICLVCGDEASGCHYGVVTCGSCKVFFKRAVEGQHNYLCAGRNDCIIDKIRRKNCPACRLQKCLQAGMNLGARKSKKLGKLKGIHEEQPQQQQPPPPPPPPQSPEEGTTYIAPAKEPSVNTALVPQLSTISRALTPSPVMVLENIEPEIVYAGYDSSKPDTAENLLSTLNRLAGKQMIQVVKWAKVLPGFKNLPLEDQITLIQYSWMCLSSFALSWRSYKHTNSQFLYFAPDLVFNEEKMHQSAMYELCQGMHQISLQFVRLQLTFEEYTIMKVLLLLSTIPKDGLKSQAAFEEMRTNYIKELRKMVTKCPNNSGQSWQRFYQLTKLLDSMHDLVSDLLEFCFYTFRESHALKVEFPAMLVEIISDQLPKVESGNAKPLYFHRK
Settings: not given
What is called IC50 is the concentration that inhibits the measured activity by half. The low end stands for greater potency, the high end for weaker potency. Compound `O=C1COc2ccc(N3CCOC[C@H]3c3ccccc3)nc2N1` registered an IC50 of 1.18 µM.

For the compound `COC[C@@H]1CN(c2ccc3c(n2)NC(=O)CO3)[C@H](c2ccccc2)CO1`, the concentration for half-maximal inhibition (IC50) amounted to 0.276 µM.

With `C[C@@H]1CN(c2ccc3c(c2)NC(=O)CO3)[C@H](c2ccccc2)CO1`, 0.013 µM corresponded to half-maximal inhibition (IC50).

On to `C[C@@H]1CN(c2ccc3c(n2)NC(=O)CO3)[C@H](c2ccccc2F)CO1`, for which inhibition was half-maximal at 0.013 µM (IC50).

Take `C[C@@H]1CN(c2cnc3c(c2)NC(=O)CO3)[C@H](c2ccccc2)CO1`: it took 2.22 µM to reach half-maximal inhibition (IC50).

For the compound `C[C@@H]1CN(c2cc3c(cn2)OCC(=O)N3)[C@H](c2ccccc2)CO1`, half-maximal inhibition (IC50) required 0.109 µM.

On to `O=C1COc2ccc(N3C[C@@H](CO)OC[C@H]3c3ccccc3)nc2N1`, for which the IC50 is over 10 µM.

In the case of `N#CC[C@@H]1CN(c2ccc3c(n2)NC(=O)CO3)[C@H](c2ccccc2)CO1`, the IC50 turned out to be 0.056 µM.

Turning to `CC1(C)CN(c2ccc3c(n2)NC(=O)CO3)[C@H](c2ccccc2)CO1`, the IC50 was determined as 0.086 µM.

Regarding `C[C@@H]1CN(c2ncc3c(n2)NC(=O)CO3)[C@H](c2ccccc2)CO1`, the IC50 came to 0.113 µM.

System in a further data set: not listed separately
The experiment in a line: Distribution coefficient, log D of the compound. In kind it is physicochemical. The settings on record: octanol/water.
One may read the logD as the decadic logarithm of the distribution of all forms, ionised or not, between an organic phase and buffer at a given pH. Lower therefore signals lower lipophilicity. For the compound `O=C1COc2ccc(N3CCOC[C@H]3c3ccccc3)nc2N1`, the logD was determined as 2.4.

`COC[C@@H]1CN(c2ccc3c(n2)NC(=O)CO3)[C@H](c2ccccc2)CO1` came in with a logD of 2.5.

Compound `C[C@@H]1CN(c2ccc3c(c2)NC(=O)CO3)[C@H](c2ccccc2)CO1` returned a logD of 3.1.

Take `C[C@@H]1CN(c2ccc3c(n2)NC(=O)CO3)[C@H](c2ccccc2F)CO1`: the logD was 3.1.

In the case of `C[C@@H]1CN(c2cnc3c(c2)NC(=O)CO3)[C@H](c2ccccc2)CO1`, the logD came to 1.9.

Take `C[C@@H]1CN(c2cc3c(cn2)OCC(=O)N3)[C@H](c2ccccc2)CO1`: the logD was determined as 2.5.

Take `C[C@@H]1CN(c2ccc3c(n2)NC(=O)CO3)[C@H](c2ccc(F)cc2)CO1`: the logD stood at 3.2.

As to `C[C@H]1CN(c2ccc3c(n2)NC(=O)CO3)[C@H](c2ccccc2)CO1`, the logD was 2.7.

Consider `C[C@@H]1CN(c2ccc3c(n2)NC(=O)CO3)[C@H](c2cccc(F)c2)CO1`, for which the logD is 3.1.

Take `O=C1COc2ccc(N3C[C@@H](CO)OC[C@H]3c3ccccc3)nc2N1`: the pH-dependent lipophilicity (logD) is 1.8.

On to `N#CC[C@@H]1CN(c2ccc3c(n2)NC(=O)CO3)[C@H](c2ccccc2)CO1`, for which the logD worked out at 2.3.

Compound `CC1(C)CN(c2ccc3c(n2)NC(=O)CO3)[C@H](c2ccccc2)CO1` showed a logD of 3.3.

The compound `C[C@@H]1CN(c2ncc3c(n2)NC(=O)CO3)[C@H](c2ccccc2)CO1` gave a logD of 2.7.

A further data set deals with T1, Mineralocorticoid receptor.
Settings: not given
The source holds these as a separate data set.
In turn, `COC[C@@H]1CN(c2ccc3c(n2)NC(=O)CO3)[C@H](c2ccccc2)CO1` gave an IC50 of 0.358 µM.

`C[C@@H]1CN(c2ccc3c(n2)NC(=O)CO3)[C@H](c2ccccc2F)CO1` returned an IC50 of 0.033 µM.

The compound `O=C1COc2ccc(N3C[C@@H](CO)OC[C@H]3c3ccccc3)nc2N1` came in with a 50% inhibitory concentration (IC50) of 10 µM.

System in the next data set: not listed separately
The data set can be described thus: Clearance in rat at 1 mg/kg, iv. The settings on record: in vivo.
As a reminder, the clearance is a measure of how efficiently the substance is removed, as volume per time. `C[C@@H]1CN(c2ccc3c(c2)NC(=O)CO3)[C@H](c2ccccc2)CO1` came in with a clearance of 3.24 L/h/kg.

In turn, `O=C1COc2ccc(N3C[C@@H](CO)OC[C@H]3c3ccccc3)nc2N1` came in with a clearance of 3.12 L/h/kg.

Turning to `C[C@@H]1CN(c2ncc3c(n2)NC(=O)CO3)[C@H](c2ccccc2)CO1`, the clearance came out at 5.7 L/h/kg.
